Measurements: patent US8940310B2, “Methods of treatment using TLR7 and/or TLR9 inhibitors” (Dynavax Technologies Corporation, priority 2010, dated 2015)
Marks after values point to notes of the source that are not given here. [I] = hypoxanthine (inosine)

Columns and labels:
[1] = Monomer and tetramer formation of IRPs, size-exclusion HPLC; format: physicochemical; details: 100 mg/mL in PBS and 0.5M KCl, room temperature, five weeks
Method: Solutions were prepared of the by mixing 100 mg/mL of the IRP sequences in PBS and 0.5M KCl and storing at room temperature for three to five weeks. The solutions were subsequently analyzed by size-exclusion HPLC.

[2] = High dosages of IRPs in rats (weight, deaths, histology); format: in vivo, Sprague Dawley rats; details: for Heart: Cell Vacuolation, number of animals / Heart: Hemorrhage, number of animals / Heart: Mononuclear Cell Infiltration, number of animals / Heart: Necrosis, number of animals / Heart: No significant changes, number of animals / Liver: Liver changes, number of animals / Liver: Mixed cell infiltration, number of animals / Liver: Necrosis, number of animals / Liver: No significant changes, number of animals / Liver: Vacuolation, number of animals / Right Kidney: Hydronephrosis, number of animals / Right Kidney: Mineralization, number of animals / Right Kidney: Necrosis, number of animals / Right Kidney: No significant changes, number of animals / Right Kidney: Tubular basophilia, number of animals / Right Kidney: Tubular changes, number of animals: 6 animals
[3] = High dosages of IRPs in mice (weight, histology); format: in vivo, BALB/c mice; details: for Liver: Liver changes, number of animals / Liver: Mixed cell infiltration, number of animals / Liver: No significan changes, number of animals / Right Kidney: No significant changes, number of animals / Right Kidney: Tubular basophilia, number of animals / Right Kidney: Tubular changes, number of animals: 6 animals; for Heart: No significant changes, number of animals: tissue missing in two animals
Method in brief: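 BALB/c mice (n=5 per group) received IRPs or saline subcutaneously at 4, 20, 50 or 100 mg/kg on days 1, 4, 7 and 10. Body weight tracked over the study; at termination organ weights, tissue oligonucleotide levels and liver, kidney and heart histology were assessed.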

human B-cells = assay: Human B-cells cultured in the presence of IRPs, IL-6
[4] = rat, 10 mg/kg, 0 = no change to 4 = severe
[5] = rat, 90 mg/kg, 0 = no change to 4 = severe
[6] = 50 mg/kg, 0 = no change to 4 = severe
[7] = 100 mg/kg, 0 = no change to 4 = severe

5′-TGC TCC TGG AGI GGT TGT-3′ (DNA TGCTCCTGGAGNGGTTGT; DNA, [I] at 12, backbone and methylation of C not given here) [SEQ ID NO:73]
1: Right Kidney: Hydronephrosis, number of animals ([2]; rat, 10 mg/kg) | Right Kidney: Mineralization, number of animals ([2]; rat, 10 mg/kg) | Liver: Liver changes, number of animals ([3]; 50 mg/kg) | Heart: Chronic inflammation, number of animals ([3]; 100 mg/kg) | Heart: Mineralization, number of animals ([3]; 100 mg/kg) | Liver: Mixed cell infiltration, number of animals ([3]; 100 mg/kg) | Liver: No significan changes, number of animals ([3]; 100 mg/kg)
1.0: Right Kidney: Mineralization, mean severity score [2, 4] | Liver: Liver changes, mean severity score [3, 6] | Liver: Mixed cell infiltration, mean severity score [3, 6] | Liver: Liver changes, mean severity score [3, 7] | Liver: Mixed cell infiltration, mean severity score [3, 7] | Right Kidney: Tubular changes, mean severity score [3, 7]
low B-cell stimulatory activity: B-cell stimulatory activity (human B-cells; FIG. 1C, percent IL-6 from CpG-ISS)
3.0: Heart: Mineralization, mean severity score [3, 6] | Heart: Mineralization, mean severity score [3, 7]
2**: Heart: No significant changes, number of animals ([3]; 50 mg/kg) | Heart: No significant changes, number of animals ([3]; 100 mg/kg)
6%: Normalized IL-6 Response (Percentage of Positive Control) (human B-cells; Experiment # 3, Max Conc 4.0 uM)
2.0: Right Kidney: Hydronephrosis, mean severity score [2, 4] | Liver: Mixed cell infiltration, mean severity score [2, 5] | Right Kidney: Tubular changes, mean severity score [2, 5] | Heart: Chronic inflammation, mean severity score [3, 7]
1.3: Right Kidney: Tubular changes, mean severity score [2, 4]
favorable toxicity profiles: toxicity profile ([2]; rat histology)
11%: Normalized IL-6 Response (Percentage of Positive Control) (human B-cells; Experiment # 1, Max Conc 4.0 uM) | Normalized IL-6 Response (Percentage of Positive Control) (human B-cells; Experiment # 9, Max Conc 2.0 uM)
3: Liver: No significan changes, number of animals ([3]; 50 mg/kg)
1.9: Liver: Liver changes, mean severity score [2, 5]
5: Liver: Liver changes, number of animals ([3]; 100 mg/kg)
0: Heart: Cell Vacuolation, number of animals ([2]; rat, 10 mg/kg) | Heart: Hemorrhage, number of animals ([2]; rat, 10 mg/kg) | Heart: Mononuclear Cell Infiltration, number of animals ([2]; rat, 10 mg/kg) | Heart: Necrosis, number of animals ([2]; rat, 10 mg/kg) | Liver: Liver changes, number of animals ([2]; rat, 10 mg/kg) | Liver: Necrosis, number of animals ([2]; rat, 10 mg/kg) | Liver: No significant changes, number of animals ([2]; rat, 10 mg/kg) | Liver: Vacuolation, number of animals ([2]; rat, 10 mg/kg) | Right Kidney: Necrosis, number of animals ([2]; rat, 10 mg/kg) | Right Kidney: No significant changes, number of animals ([2]; rat, 10 mg/kg) | Right Kidney: Tubular basophilia, number of animals ([2]; rat, 10 mg/kg) | Heart: Cell Vacuolation, number of animals ([2]; rat, 90 mg/kg) | Heart: Hemorrhage, number of animals ([2]; rat, 90 mg/kg) | Heart: Mononuclear Cell Infiltration, number of animals ([2]; rat, 90 mg/kg) | Heart: Necrosis, number of animals ([2]; rat, 90 mg/kg) | Liver: Necrosis, number of animals ([2]; rat, 90 mg/kg) | Liver: No significant changes, number of animals ([2]; rat, 90 mg/kg) | Liver: Vacuolation, number of animals ([2]; rat, 90 mg/kg) | Right Kidney: Hydronephrosis, number of animals ([2]; rat, 90 mg/kg) | Right Kidney: Necrosis, number of animals ([2]; rat, 90 mg/kg) | Right Kidney: No significant changes, number of animals ([2]; rat, 90 mg/kg) | Right Kidney: Tubular basophilia, number of animals ([2]; rat, 90 mg/kg) | Heart: Chronic inflammation, number of animals ([3]; 50 mg/kg) | Right Kidney: Tubular basophilia, number of animals ([3]; 50 mg/kg) | Right Kidney: Tubular changes, number of animals ([3]; 50 mg/kg) | Right Kidney: No significant changes, number of animals ([3]; 100 mg/kg) | Right Kidney: Tubular basophilia, number of animals ([3]; 100 mg/kg)
1.8: Liver: Mixed cell infiltration, mean severity score [2, 4]
100%: fraction in monomer form [1]
6: Heart: No significant changes, number of animals ([2]; rat, 10 mg/kg) | Liver: Mixed cell infiltration, number of animals ([2]; rat, 10 mg/kg) | Right Kidney: Tubular changes, number of animals ([2]; rat, 10 mg/kg) | Heart: No significant changes, number of animals ([2]; rat, 90 mg/kg) | Liver: Liver changes, number of animals ([2]; rat, 90 mg/kg) | Right Kidney: Tubular changes, number of animals ([2]; rat, 90 mg/kg) | Right Kidney: No significant changes, number of animals ([3]; 50 mg/kg) | Right Kidney: Tubular changes, number of animals ([3]; 100 mg/kg)
2: Liver: Mixed cell infiltration, number of animals ([2]; rat, 90 mg/kg) | Right Kidney: Mineralization, number of animals ([2]; rat, 90 mg/kg) | Heart: Mineralization, number of animals ([3]; 50 mg/kg) | Liver: Mixed cell infiltration, number of animals ([3]; 50 mg/kg)
13%: Normalized IL-6 Response (Percentage of Positive Control) (human B-cells; Experiment # 2, Max Conc 4.0 uM)
1.5: Right Kidney: Mineralization, mean severity score [2, 5]
